One assay concerns Plasmodium falciparum. As to the kind of experiment: Antiplasmodial activity against Plasmodium falciparum 3D7 by Geimsa staining method. Type of assay: functional, organism-based.
A further assay deals with HL-60. As to the kind of experiment: Cytotoxicity against human HL60 cells. Type of assay: cell-based.
Assay [1] can be described thus: Selectivity index, ratio of IC50 for Plasmodium falciparum 3D7 to IC50 for human HL60 cells. Further details: species or system HL-60.

The structures appear in SMILES notation. pIC50: −log10 of the molar value. A value given as a limit tells only on which side of the number the result lay.

`CCc1c[n+]2ccc3c4ccccc4[nH]c3c2cc1CCO` [NICALATERINE A]: the negative logarithm of the IC50 (pIC50) in the assay on Plasmodium falciparum (Plasmodium falciparum, 3D7) is 6.96; with HL-60, less than 4.30. Also, the “Ratio IC50” value in assay [1] was greater than 450.

Take `C/C=C1/C[N@@+]2(C)CCc3c([nH]c4ccc(O)c(C5=C[C@@]6(CC)CCCN7CCc8c(n5c5ccccc85)[C@H]76)c34)[C@H]2C[C@@H]1CCO` [BISNICALATERINE D]: the negative-log IC50 (pIC50) in the assay on Plasmodium falciparum (Plasmodium falciparum, 3D7) was less than 4.30; in the assay with HL-60, less than 4.30.

Consider `C/C=C1/CN(C)[C@H]2Cc3c([nH]c4ccccc34)[C@H](n3c4c(c5ccccc53)C[C@H]3[C@@H](C(=O)OC)[C@H](C[C@H]4O)/C(=C\C)CN3C)C[C@H]1[C@@H]2C(=O)OC` [BISNICALATERINE A], for which the pIC50 was 5.36 in the assay on Plasmodium falciparum (Plasmodium falciparum, 3D7) and 4.79 in the assay on HL-60. For the same compound, the “Ratio IC50” value in assay [1] amounted to 3.7.

As to `C/C=C1/C[N@@+]2(C)CCc3c([nH]c4ccc(O)c([C@@H]5C[C@@]6(CC)CCCN7CCc8c(n5c5ccccc85)[C@H]76)c34)[C@H]2C[C@@H]1CCO` (stereo in doubt; 4) [BISNICALATERINE B], the negative-log IC50 (pIC50) was 5.95 in the assay with Plasmodium falciparum and less than 4.30 in the assay on HL-60. For the same compound, the “Ratio IC50” value in assay [1] is given as greater than 44.

`C/C=C1/C[N@@+]2(C)CCc3c([nH]c4ccc(O)c([C@@H]5C[C@@]6(CC)CCCN7CCc8c(n5c5ccccc85)[C@H]76)c34)[C@H]2C[C@@H]1CCO` (stereo in doubt; 5) [BISNICALATERINE B] gave a negative logarithm of the IC50 (pIC50) in the assay on Plasmodium falciparum of 7.30. Moreover, the “Ratio IC50” value in assay [1] is given as greater than 1000.

Source of the values: ChEMBL document CHEMBL1777784, “New antiplasmodial indole alkaloids from Hunteria zeylanica” (Bioorg Med Chem Lett, 2011).
